This note sets out measurements from patent US10646508B1, “Method of safely administering nitrate dietary supplements and compositions” (ThermoLife International, LLC, priority 2007, dated 2020).

Data set [1] can be described thus: Intrinsic dissolution profiles (modified Wood's apparatus, USP type II). It counts as physicochemical. Here is the method: Objective: The objective of this study was to determine the dissolution characteristics of three different forms of commercially available Creatine including Creatine nitrate (CN), Creatine monohydrate (CM) and buffered Creatine (BC) under different temperature and pH. Methods: Intrinsic dissolution studies were carried out at 37° C. and room temperature in pH 2.5 and 7.4 buffer using modified Wood's apparatus. CN, CM and BC samples (˜0.5 g) were compressed in the dies with constant surface area of 1.21 cm2 using a Carver press at 2000 psi with a dwell time of 10 sec. These dies were placed in the USP dissolution apparatus (type II) containing 140 ml of dissolution media, with paddle speed of 50 rpm. Dissolution medium were collected at definite time intervals over a period of 3 hours for CN and 7 hours for both CM and BC and analyzed for Creatine using a validated HPLC method. Results: A plot of the amount of Creatine dissolved (mg)/surface area (cm2) versus time gives the slope (k′) which is directly proportional to the dissolution rate constant. The k′ (mg/cm2 hr) values for CN, CM and BC in pH 2.5 buffer at room temperature were 293.0±3.48, 59.1±2.06 and 71.1±0.59. At 37° C. these k′ (mg/cm2 hr) values were 327.3±2.66, 97.9±0.88 and 117.9±1.12, respectively. In pH 7.4 buffer, the k′ (mg/cm2 hr) values for CN, CM and BC were 278.9±14.6, 52.1±0.22 and 50.6±0.95 at room temperature and 319.5±14.3, 86.0±5.05 and 96.9±9.28 at 37° C., respectively. Conclusions: The dissolution rates of all three Creatine forms were higher at 37° C. as compared to at room temperature. […] However, the dissolution rate of CN was not affected by the pH of the dissolution media. […] Results of this study further predict a better bioavailability of CN as compared to CM and BC.

A short description of data set [2]: Chemical stability of Creatine forms in solution. It counts as physicochemical. The following applies: for pH of samples, initial: start of storage; for degradation rate constant (k): ~10 mg/ml. Here is the method:
Methods: A known concentration (˜10 mg/ml) of CN, CM and BC were prepared in both pH 2.5 and pH 6.8 buffer and stored in stability chambers in screw-capped bottles at 37° C. and 40° C., respectively. Samples were collected at predetermined time points and analyzed for Creatine and degradation products if any, using a validated HPLC method. Changes in the pH, clarity and color of the samples were also determined. The order of degradation and rate constant were determined by graphical method. Results: The degradation rate constants (k) for CN, CM and BC at 37° C. in pH 2.5 buffer were 0.075±0.001, 0.119±0.011 and 0.108±0.002 (day-1) while that at 40° C. in pH 6.8 buffer were 0.115±0.001, 0.015±0.001 and 0.013±0.002 (day-1), respectively. The pH of CN samples at 40° C. in pH 6.8 buffer changed from 2.83±0.01 to 4.31±0.01 within a period of 12 days. The pH changes noticed at 37° C. in pH 2.5 buffer samples over the same period of time for CM, and BC were 3.08±0.01 to 4.12±0.01 and 3.11±0.01 and 4.16±0.01, respectively. […] No change in the color and the clarity was noticed over 12 days. Conclusions: All the Creatine samples followed first order degradation kinetics under both these experimental conditions. […] The major degradation product detected was Creatinine. For CN the increase in pH was higher at 40° C. in pH 6.8 buffer as compared to 37° C. in pH 2.5 buffer. However, opposite effect was noticed for both CM and BC.

Where [3] appears, read: pH 2.5 buffer, room temperature.
Setting [4] is: pH 7.4 buffer, room temperature.

With `CN(CC(=O)O)C(=N)N.O` [CM, Creatine monohydrate, reference compound], the “k' (slope, proportional to intrinsic dissolution rate constant)” value in data set [1] (pH 2.5 buffer, 37° C.) is given as 97.9±0.88 mg/cm2 hr; in data set [1] (setting [3]), 59.1±2.06 mg/cm2 hr; in data set [1] (pH 7.4 buffer, 37° C.), 86.0±5.05 mg/cm2 hr; in data set [1] (setting [4]), 52.1±0.22 mg/cm2 hr. In addition, the “pH of samples, after storage” value in data set [2] (37° C. in pH 2.5 buffer, over 12 days) is given as 4.12±0.01. Further, in data set [2] (37° C. in pH 2.5 buffer), the “pH of samples, initial” value was 3.08±0.01.

Take `CN(CC(=O)O)C(=N)N.O=[N+]([O-])O` [CN, Creatine nitrate]: the “k' (slope, proportional to intrinsic dissolution rate constant)” value in data set [1] (pH 2.5 buffer, 37° C.) is on record as 327.3±2.66 mg/cm2 hr; in data set [1] (setting [3]), 293.0±3.48 mg/cm2 hr; in data set [1] (pH 7.4 buffer, 37° C.), 319.5±14.3 mg/cm2 hr; in data set [1] (setting [4]), 278.9±14.6 mg/cm2 hr. The results for the “degradation rate constant (k)” value in data set [2] (37° C. in pH 2.5 buffer) and in data set [2] (40° C. in pH 6.8 buffer) were 0.075 ± 0.001 day⁻¹ and 0.115 ± 0.001 day⁻¹, respectively. For the same compound, in data set [2] (40° C. in pH 6.8 buffer), the “pH of samples, initial” value was determined as 2.83±0.01. Also, the “pH of samples, after storage” value in data set [2] (40° C. in pH 6.8 buffer, within a period of 12 days) turned out to be 4.31±0.01.
